Laboratory results published in patent US3974153A, “7-Hydrocarbonoxy imino-acetamido-3-carbamoyloxy methylceph-3-em-4 carboxylic acids” (Glaxo Laboratories Limited, priority 1971, dated 1976).
Structures can show the parent of a compound that is named as a salt.

Tests used:
[1] = exposure of crystalline forms to water vapour; type: physicochemical; conditions: for water content after exposure to moisture (Karl-Fischer): 75% relative humidity, 3 days, product is Form IV
Description: The resulting material contains about 4% water (i.e. about 1 mole) and is believed to be a hydrate. This change is reversible, so that Form IV salt may be converted to Form I salt by, for example, drying in vacuo over a desiccating agent such as phosphorus pentoxide.
If crystalline Form III material is treated in this way, the crystal habit of the product appears to be retained throughout the sequence of transformations. Form III salt may also be converted to Form I salt by heating a suspension of Form III material in nearly boiling methanol; this transformation […] in loss of crystallinity where crystalline Form III material is used.
Sample of Form I and Form III sodium 3-carbamoyloxymethyl-7-[2-(fur-2-yl)-2-methoxyiminoacetamido]ceph-3-em-4-carboxylate (syn isomer), prepared according to Method (iii) of Example 7 and Example 9 respectively, were exposed to moisture (75% relative humidity) for 3 days to give the title compound. The IR and NMR spectra of the products conformed to those of an authentic sample. Karl-Fischer water analysis gave, respectively, 4.0 and 3.85% (1 mole H2 O is equivalent to 3.9%).

[2] = system: Neisseria gonorrhoeae; test: in vitro antibacterial activity; type: cell-based
[3] = system: Klebsiella species; test: antibacterial activity; type: cell-based; conditions: in vitro and in vivo tests
[4] = system: Diplococcus pneumoniae; test: antibacterial activity; type: cell-based; conditions: in vitro and in vivo tests
[5] = system: gram-positive and gram-negative microorganisms; test: antibacterial activity against gram-positive and gram-negative microorganisms; type: cell-based
[6] = stability in the body and urinary recovery, humans; type: in vivo, human
[7] = system: Neisseria meningitidis; test: in vitro antibacterial activity; type: cell-based
[8] = stability in the body and urinary recovery, animals; type: in vivo
[9] = system: Clostridia species; test: antibacterial activity; type: cell-based; conditions: in vitro and in vivo tests
[10] = system: β-lactamases; test: stability to β-lactamases produced by gram-negative organisms; type: cell-based; conditions: evidenced by in vitro activity against β-lactamase-producing strains of Escherichia, Enterobacter and Klebsiella species
[11] = system: Staphylococcus aureus; test: antibacterial activity; type: cell-based; conditions: in vitro and in vivo tests
[12] = serum binding; type: in vitro ADME
[13] = system: Enterobacter species; test: antibacterial activity; type: cell-based; conditions: in vitro and in vivo tests
[14] = system: Streptococcus vilidans; test: antibacterial activity; type: cell-based; conditions: in vitro and in vivo tests
[15] = serum levels following parenteral administration, humans; type: in vivo; conditions: human subjects
[16] = system: mammalian esterases; test: resistance to esterases; type: in vitro ADME
[17] = serum levels following parenteral administration, animals; type: in vivo; conditions: animal subjects
[18] = system: Staphylococci; test: antibacterial activity; type: cell-based; conditions: in vitro and in vivo tests
[19] = system: Proteus species; test: antibacterial activity; type: cell-based; conditions: in vitro and in vivo tests
[20] = system: Neisseria species; test: antibacterial activity; type: cell-based; conditions: in vitro and in vivo tests
[21] = system: Escherichia coli; test: antibacterial activity; type: cell-based; conditions: in vitro and in vivo tests
[22] = system: Streptococcus pyogenes; test: antibacterial activity; type: cell-based; conditions: in vitro and in vivo tests
[23] = system: Haemophilus influenzae; test: antibacterial activity; type: cell-based
[24] = solubility of base salts; type: physicochemical; conditions: e.g. alkali metal salts
[25] = distribution in the body on administration by injection; type: in vivo

## CO/N=C(\C(=O)N[C@@H]1C(=O)N2C(C(=O)O)=C(COC(N)=O)CS[C@H]12)c1ccco1 [Form I, Form I Sodium (6R,7R)-3-Carbamoyloxymethyl-7-[2-(fur-2-yl)-2-methoxyiminoacetamido]ceph-3-em-4-carboylate (syn isomer)]
[1]
  water content after exposure to moisture (Karl-Fischer): 4.0%
[1]; e.g. 75% relative humidity
  change of form on exposure to water vapour: undergo a change of crystalline form leading generally to Form IV salt
  water absorption on exposure to water vapour (hygroscopicity): absorb further water
[1]; e.g. 75% relative humidity, material generally Form IV
  water content of material resulting from exposure to water vapour: about 4%

## CO/N=C(\C(=O)N[C@@H]1C(=O)N2C(C(=O)O)=C(COC(N)=O)CS[C@H]12)c1ccco1 [Form II, Form II Sodium (6R,7R)-3-Carbamoyloxymethyl-7-[2-(fur-2-yl)-2-methoxyiminoacetamido]ceph-3-em-4-carboxylate (syn isomer)]
[1]; e.g. 75% relative humidity
  water absorption on exposure to water vapour (hygroscopicity): does not absorb further water

## CO/N=C(\C(=O)N[C@@H]1C(=O)N2C(C(=O)O)=C(COC(N)=O)CS[C@H]12)c1ccco1 [Form III, Form III Sodium (6R,7R)-3-Carbamoyloxymethyl-7-[2-(fur-2-yl)-2-methoxyiminoacetamido]ceph-3-em-4-carboxylate (syn isomer)]
[1]
  water content after exposure to moisture (Karl-Fischer): 3.85%
[1]; e.g. 75% relative humidity
  change of form on exposure to water vapour: loses all the dioxan present and forms Form IV material
  water absorption on exposure to water vapour (hygroscopicity): hygroscopic

## CO/N=C(\C(=O)N[C@@H]1C(=O)N2C(C(=O)O)=C(COC(N)=O)CS[C@H]12)c1ccco1 [compound (II), (6R,7R)-3-carbamoyloxymethyl-7-[2-(fur-2-yl)-2-methoxyiminoacetamido]ceph-3-em-4-carboxylic acid (syn isomer)]
[2]
  in vitro activity against strains of Neisseria gonorrhoeae: particularly high in vitro activity
[3]
  activity against Klebsiella species: active
[4]
  activity against Diplococcus pneumoniae: active
[5]; in vitro and in vivo tests
  activity against gram-positive and gram-negative microorganisms: active
[5]; inoculum levels as high as 10^7 organisms/ml
  in vitro activity at high inoculum levels: good in vitro activity
[6]
  recovery of unchanged compound in the urine: high levels
  stability in the body: stable
[7]
  in vitro activity against strains of Neisseria meningitidis: particularly high in vitro activity
[8]
  recovery of unchanged compound in the urine: high levels
  stability in the body: stable
[9]
  activity against Clostridia species: active
[10]
  stability to β-lactamases produced by a range of gram-negative organisms: very high stability
[11]
  activity against Staphylococcus aureus: active
[12]
  serum binding: low serum binding
[13]
  activity against Enterobacter species: active
[14]
  activity against Streptococcus vilidans: active
[15]
  serum levels: high serum levels
[16]
  resistance to the action of mammalian esterases: resistant
[17]
  serum levels: high serum levels
[18]
  activity against Staphylococci: active
[19]
  activity against Proteus species: active
[20]
  activity against Neisseria species: active
[21]
  activity against Escherichia coli: active
[22]
  activity against Streptococcus pyogenes: active
[23]; in vitro
  in vitro activity against strains of Haemophilus influenzae: particularly high in vitro activity
[23]; in vitro and in vivo tests
  activity against Haemophilus influenzae: active

## CO/N=C(\C(=O)N[C@@H]1C(=O)N2C(C(=O)O)=C(COC(N)=O)CS[C@H]12)c1ccco1 [sodium salt, sodium (6R,7R)-3-carbamoyloxymethyl-7-[2-(fur-2-yl)-2-methoxyiminoacetamido]ceph-3-em-4-carboxylate (syn isomer)]
[24]
  solubility: highly soluble
[25]
  distribution in the body: rapid distribution
